Assay results reported in article PMC10866072, “Design, synthesis, molecular modelling and biological evaluation of novel 6-amino-5-cyano-2-thiopyrimidine derivatives as potent anticancer agents against leukemia and apoptotic inducers” (Journal of Enzyme Inhibition and Medicinal Chemistry, 2024).
Like-named read-outs stand apart in the source and are kept apart here.

Columns and labels:
[1] = tested on: leukaemia cell lines; assay: NCI-60 five-dose, subpanel
Description: Furthermore, the average sensitivity of all cell lines to the compound is termed as the full panel mean graph midpoints (MG-MID). The complete panel mean graph midpoints refers to the average sensitivity of all cell lines to the chemical (MG-MID). A measure of a compound’s selectivity for a given cell line is the ratio created by dividing the full panel mean graph midpoints (MG-MID) concentration by the individual subpanel MG-MID concentrations (obtained as the average sensitivity of all the cell lines in a given subpanel to the test compound).
Assessment of selectivity of a compound depends on the ratio obtained by dividing the full panel MID ^a by their individual subpanel MID ^b (µM) where MID^a is the average sensitivity of all cell lines towards the test agent (µM).

[2] = tested on: NCI-H23; format: cell-based
[3] = tested on: SK-MEL-5; format: cell-based
[4] = molecular target: T1, PI3Kβ (Homo sapiens, UniProt P42338); assay: PI3 Kinase Activity/Inhibitor Assay Kit; format: biochemical; conditions: mean of two independent replicates ± SD
T1 construct: purchased Millipore Corporation 17-493 (assay kit)
Protocol: In vitro PI3 kinases inhibitory activity assay
All buffers, working standards and samples were prepared.
A total of 5 μl/well 5X kinase reaction buffer was added following the addition of the substrate, then distilled water was added to fill up to 25 μl. After incubation for 1 h at room temperature, 25 μl of biotinylated PIP3/EDTA working solution was added to all wells except the buffer control. Instead, 25 μl tris-buffered saline (TBS) was added to the buffer control wells. A general receptor phosphoinsitides -1 working solution was added to all wells then, was incubated for 1 h at room temperature. After incubation, all wells were washed with 200 μl 1X TBS -Tween followed by addition of 50 μl (horseradish peroxide as econjugated streptavidin) SA -HRP then were incubated for 1 h at room temperature. All wells were washed using 100 μl 1X TBS -Tween and TBS followed by addition of 100 μl of substrate 3,3’,5,5’-tetramethylbenzidine and kept in dark for 5–20 min.

[5] = tested on: IGROV1; format: cell-based
[6] = tested on: M14; format: cell-based
[7] = tested on: A498; format: cell-based
[8] = tested on: SNB-19; format: cell-based
[9] = Homo sapiens, five-dose, read-out: LC50 (the source's name)
[10] = Homo sapiens, one dose 10^-5 M, 48 h, read-out: % growth
[11] = Homo sapiens, one dose 10^-5 M, 48 h

T1 sequence (P42338 whole entry, species assumed): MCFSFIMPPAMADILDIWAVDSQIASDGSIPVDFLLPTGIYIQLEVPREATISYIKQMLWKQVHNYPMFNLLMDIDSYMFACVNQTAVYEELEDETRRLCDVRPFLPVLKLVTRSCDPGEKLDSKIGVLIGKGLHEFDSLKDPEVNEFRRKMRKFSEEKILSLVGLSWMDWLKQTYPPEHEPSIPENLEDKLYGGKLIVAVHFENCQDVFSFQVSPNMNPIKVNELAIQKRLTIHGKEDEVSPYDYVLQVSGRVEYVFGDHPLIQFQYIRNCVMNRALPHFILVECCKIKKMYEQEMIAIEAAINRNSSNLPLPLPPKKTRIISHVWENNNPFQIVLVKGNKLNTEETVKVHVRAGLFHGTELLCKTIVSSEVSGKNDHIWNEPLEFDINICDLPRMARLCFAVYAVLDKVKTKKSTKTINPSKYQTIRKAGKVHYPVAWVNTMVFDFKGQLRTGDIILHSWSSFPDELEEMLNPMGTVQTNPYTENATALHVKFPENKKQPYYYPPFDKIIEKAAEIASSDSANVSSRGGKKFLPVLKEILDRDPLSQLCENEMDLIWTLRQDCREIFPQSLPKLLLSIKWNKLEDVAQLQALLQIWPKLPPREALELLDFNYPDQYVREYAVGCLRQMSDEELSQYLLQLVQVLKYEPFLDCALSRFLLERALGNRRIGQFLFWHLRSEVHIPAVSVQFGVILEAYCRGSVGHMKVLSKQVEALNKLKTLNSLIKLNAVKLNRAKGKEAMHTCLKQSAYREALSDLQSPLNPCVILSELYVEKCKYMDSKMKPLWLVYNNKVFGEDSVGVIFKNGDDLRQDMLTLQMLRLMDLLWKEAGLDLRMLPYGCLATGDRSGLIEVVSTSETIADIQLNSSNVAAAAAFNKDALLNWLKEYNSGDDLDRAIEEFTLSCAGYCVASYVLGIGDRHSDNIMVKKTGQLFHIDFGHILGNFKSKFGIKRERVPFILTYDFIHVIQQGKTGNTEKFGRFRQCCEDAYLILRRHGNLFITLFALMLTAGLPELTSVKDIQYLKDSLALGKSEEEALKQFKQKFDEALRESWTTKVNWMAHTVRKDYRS
T1 sequence (P27986 whole entry partner, species assumed): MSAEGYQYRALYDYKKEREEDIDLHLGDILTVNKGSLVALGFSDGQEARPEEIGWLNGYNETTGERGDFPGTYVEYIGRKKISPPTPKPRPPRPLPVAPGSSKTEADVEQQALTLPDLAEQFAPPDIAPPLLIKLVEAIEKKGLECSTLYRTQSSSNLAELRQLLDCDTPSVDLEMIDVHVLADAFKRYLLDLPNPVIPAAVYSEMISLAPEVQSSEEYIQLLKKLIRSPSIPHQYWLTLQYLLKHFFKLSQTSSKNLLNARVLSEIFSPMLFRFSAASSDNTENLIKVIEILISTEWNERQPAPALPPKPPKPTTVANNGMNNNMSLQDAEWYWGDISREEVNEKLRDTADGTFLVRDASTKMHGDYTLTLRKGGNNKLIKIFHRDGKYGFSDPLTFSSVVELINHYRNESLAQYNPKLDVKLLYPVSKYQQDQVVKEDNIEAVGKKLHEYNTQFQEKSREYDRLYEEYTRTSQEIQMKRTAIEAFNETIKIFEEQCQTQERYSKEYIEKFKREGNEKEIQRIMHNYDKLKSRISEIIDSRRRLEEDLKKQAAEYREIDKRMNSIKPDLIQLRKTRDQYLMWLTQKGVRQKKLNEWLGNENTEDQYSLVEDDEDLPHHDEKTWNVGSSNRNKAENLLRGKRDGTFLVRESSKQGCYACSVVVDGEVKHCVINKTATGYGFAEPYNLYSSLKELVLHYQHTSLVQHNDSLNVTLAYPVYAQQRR

N#Cc1c(N)nc(S)nc1-c1ccc(Cl)cc1Cl [Compound 1c, 4-Amino-6–(2,4-dichlorophenyl)-2-mercaptopyrimidine-5-carbonitrile]
GI50 ([1]; Homo sapiens, read-out: GI50 Subpanel MID^b): 0.33 µM
GI50 ([1]; Homo sapiens, read-out: GI50 range, leukaemia cell lines): 0.08 to 0.7 µM
CC50 ([1]; Homo sapiens, read-out: LC50, leukaemia): > 100 µM
Selectivity ratio (full panel MID^a / subpanel MID^b, GI50 level) ([1]; leukaemia): 39
GI50 ([2]; Homo sapiens, five-dose): 13.1 µM
CC50 [2, 9]: 60.9 µM
activity at 10 µM [2, 10]: 76.1%
TGI ([2]; five-dose): 28.30 µM
GI50 ([3]; Homo sapiens, five-dose): 5.56 µM
CC50 [3, 9]: 45 µM
activity at 10 µM [3, 10]: 58.1%
TGI ([3]; five-dose): 19.50 µM
IC50 [4]: 0.55 ± 0.002 µM
GI50 ([5]; Homo sapiens, IGROV-1, five-dose): 19.2 µM
CC50 ([5]; Homo sapiens, IGROV-1, five-dose, read-out: LC50 (the source's name)): 87.6 µM
activity at 10 µM ([5]; Homo sapiens, IGROV-1, one dose 10^-5 M, 48 h, read-out: % growth): 65.7%
TGI ([5]; five-dose): 41.00 µM
GI50 ([6]; Homo sapiens, five-dose): 2.42 µM
CC50 [6, 9]: 93.7 µM
% growth at 10 µM [6, 11]: 49.8%
TGI ([6]; five-dose): 28.00 µM
GI50 ([7]; Homo sapiens, five-dose): 19.8 µM
LC50 ([7]; Homo sapiens, five-dose): 78.5 µM
% growth at 10 µM [7, 11]: 137%
TGI ([7]; five-dose): 39.40 µM
GI50 ([8]; Homo sapiens, five-dose): 17 µM
CC50 [8, 9]: > 100 µM
activity at 10 µM [8, 10]: 75.4%
TGI ([8]; five-dose): 50.00 µM
